In ChEMBL document CHEMBL3867474, “Discovery of novel pyrrolidineoxy-substituted heteroaromatics as potent and selective PI3K delta inhibitors with improved physicochemical properties” (Bioorg Med Chem Lett, 2016):
≈ marks a conversion by molar mass, not a printed value.

Experiments:
[1] = molecular target: T1, Phosphatidylinositol 4,5-bisphosphate 3-kinase catalytic subunit beta isoform (Homo sapiens, UniProt P42338); experiment: Inhibition of myristoylated PI3K-beta (unknown origin) overexpressed in Rat1 cells assessed as inhibition of Akt phosphorylation; format: cell-based
[2] = molecular target: T2, Phosphatidylinositol 4,5-bisphosphate 3-kinase catalytic subunit delta isoform (Homo sapiens) (UniProt O00329); experiment: Selectivity ratio of IC50 for myristoylated PI3K-delta (unknown origin) overexpressed in Rat1 cells to IC50 for PI3K-delta (unknown origin); format: cell-based
T2 sequence (whole entry): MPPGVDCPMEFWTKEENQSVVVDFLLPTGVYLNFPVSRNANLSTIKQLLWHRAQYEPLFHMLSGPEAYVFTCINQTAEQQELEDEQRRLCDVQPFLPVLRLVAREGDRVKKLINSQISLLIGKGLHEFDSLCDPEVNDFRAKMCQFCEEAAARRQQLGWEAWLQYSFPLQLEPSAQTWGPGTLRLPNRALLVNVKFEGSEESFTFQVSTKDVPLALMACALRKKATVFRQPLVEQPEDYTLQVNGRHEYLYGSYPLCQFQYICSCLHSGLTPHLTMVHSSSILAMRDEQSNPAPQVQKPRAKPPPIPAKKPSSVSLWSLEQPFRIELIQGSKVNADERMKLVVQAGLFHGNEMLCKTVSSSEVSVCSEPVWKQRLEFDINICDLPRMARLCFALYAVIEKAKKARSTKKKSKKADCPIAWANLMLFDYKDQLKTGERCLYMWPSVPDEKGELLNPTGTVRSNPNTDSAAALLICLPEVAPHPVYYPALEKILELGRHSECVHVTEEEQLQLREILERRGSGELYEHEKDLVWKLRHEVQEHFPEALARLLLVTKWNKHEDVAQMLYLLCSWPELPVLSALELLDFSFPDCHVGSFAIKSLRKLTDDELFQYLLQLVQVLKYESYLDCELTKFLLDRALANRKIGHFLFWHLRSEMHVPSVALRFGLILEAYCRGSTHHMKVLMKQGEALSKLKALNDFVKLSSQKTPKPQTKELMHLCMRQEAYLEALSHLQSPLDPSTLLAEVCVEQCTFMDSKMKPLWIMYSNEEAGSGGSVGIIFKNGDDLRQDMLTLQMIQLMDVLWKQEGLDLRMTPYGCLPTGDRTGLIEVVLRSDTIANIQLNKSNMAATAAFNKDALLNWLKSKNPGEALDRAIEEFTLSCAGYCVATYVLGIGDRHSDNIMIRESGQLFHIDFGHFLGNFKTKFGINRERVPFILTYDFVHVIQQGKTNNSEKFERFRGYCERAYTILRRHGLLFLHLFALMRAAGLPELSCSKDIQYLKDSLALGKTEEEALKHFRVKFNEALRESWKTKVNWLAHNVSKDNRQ

[3] = Solubility of the compound at pH 6.8 by high-throughput equilibrium analysis; format: physicochemical; conditions: buffer
[4] = molecular target: Phosphatidylinositol 4,5-bisphosphate 3-kinase catalytic subunit gamma isoform (Homo sapiens, UniProt P48736); experiment: Inhibition of PI3K-gamma (unknown origin) by KinaseGlo assay
[5] = molecular target: T3, Phosphatidylinositol 4,5-bisphosphate 3-kinase catalytic subunit alpha isoform (Homo sapiens, UniProt P42336); experiment: Inhibition of PI3K-alpha (unknown origin) by KinaseGlo assay
[6] = molecular target: T3, Phosphatidylinositol 4,5-bisphosphate 3-kinase catalytic subunit alpha isoform; experiment: Inhibition of myristoylated PI3K-alpha (unknown origin) overexpressed in Rat1 cells assessed as inhibition of Akt phosphorylation; format: cell-based
[7] = molecular target: T4, Phosphatidylinositol 4,5-bisphosphate 3-kinase catalytic subunit delta isoform (Homo sapiens, UniProt O00329); experiment: Inhibition of myristoylated PI3K-delta (unknown origin) overexpressed in Rat1 cells assessed as inhibition of Akt phosphorylation; format: cell-based
T4 sequence (O00329 whole entry): T2 sequence (whole entry)

[8] = molecular target: T4, Phosphatidylinositol 4,5-bisphosphate 3-kinase catalytic subunit delta isoform; experiment: Inhibition of PI3K-delta (unknown origin) by KinaseGlo assay
[9] = Lipophilicity, log P of the compound by high-throughput assay; format: physicochemical; conditions: octanol/water
[10] = molecular target: T1, Phosphatidylinositol 4,5-bisphosphate 3-kinase catalytic subunit beta isoform; experiment: Inhibition of PI3K-beta (unknown origin) by KinaseGlo assay
[11] = Inhibition of PI3K-delta in rat whole blood assessed as inhibition of anti-IgM/IL4 induced CD86 expression; format: tissue-based
[12] = molecular target: T5, Phosphatidylinositol 4,5-bisphosphate 3-kinase catalytic subunit delta isoform (Mus musculus, UniProt O35904); experiment: Inhibition of PI3K-delta in mouse splenocytes assessed as inhibition anti-IgM induced CD86 expression; format: cell-based
T5 sequence (O35904 whole entry): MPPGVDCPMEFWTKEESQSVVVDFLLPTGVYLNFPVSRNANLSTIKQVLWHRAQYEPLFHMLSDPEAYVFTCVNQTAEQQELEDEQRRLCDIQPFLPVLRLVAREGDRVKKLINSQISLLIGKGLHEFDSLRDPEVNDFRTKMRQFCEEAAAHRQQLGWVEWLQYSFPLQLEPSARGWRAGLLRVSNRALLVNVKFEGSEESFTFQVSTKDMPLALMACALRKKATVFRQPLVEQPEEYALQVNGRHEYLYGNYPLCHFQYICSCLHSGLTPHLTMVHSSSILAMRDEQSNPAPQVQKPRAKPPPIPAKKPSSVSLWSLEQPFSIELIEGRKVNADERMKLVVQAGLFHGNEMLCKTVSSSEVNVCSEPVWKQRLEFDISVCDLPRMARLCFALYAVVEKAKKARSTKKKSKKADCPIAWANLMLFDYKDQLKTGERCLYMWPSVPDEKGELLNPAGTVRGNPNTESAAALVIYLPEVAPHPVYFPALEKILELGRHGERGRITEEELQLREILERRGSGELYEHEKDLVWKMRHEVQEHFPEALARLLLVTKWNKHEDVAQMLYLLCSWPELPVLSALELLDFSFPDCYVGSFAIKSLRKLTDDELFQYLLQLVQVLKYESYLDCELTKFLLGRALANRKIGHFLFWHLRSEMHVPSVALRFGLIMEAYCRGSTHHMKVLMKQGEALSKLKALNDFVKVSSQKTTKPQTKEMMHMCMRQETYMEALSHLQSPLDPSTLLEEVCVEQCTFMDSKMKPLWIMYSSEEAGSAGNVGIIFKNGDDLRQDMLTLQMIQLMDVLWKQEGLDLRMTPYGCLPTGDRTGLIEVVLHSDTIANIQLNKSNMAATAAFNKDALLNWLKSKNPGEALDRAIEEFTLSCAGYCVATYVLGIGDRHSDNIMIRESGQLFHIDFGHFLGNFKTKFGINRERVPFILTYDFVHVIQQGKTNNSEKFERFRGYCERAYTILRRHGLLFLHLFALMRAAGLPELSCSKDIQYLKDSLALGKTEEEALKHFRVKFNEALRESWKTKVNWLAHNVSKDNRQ

[13] = system: Rat1; experiment: Selectivity ratio of IC50 for PI3K-delta in rat whole blood to IC50 for myristoylated PI3K-delta (unknown origin) overexpressed in Rat1 cells; format: cell-based

Sequence of Phosphatidylinositol 4,5-bisphosphate 3-kinase catalytic subunit gamma isoform (P48736 whole entry, canonical isoform): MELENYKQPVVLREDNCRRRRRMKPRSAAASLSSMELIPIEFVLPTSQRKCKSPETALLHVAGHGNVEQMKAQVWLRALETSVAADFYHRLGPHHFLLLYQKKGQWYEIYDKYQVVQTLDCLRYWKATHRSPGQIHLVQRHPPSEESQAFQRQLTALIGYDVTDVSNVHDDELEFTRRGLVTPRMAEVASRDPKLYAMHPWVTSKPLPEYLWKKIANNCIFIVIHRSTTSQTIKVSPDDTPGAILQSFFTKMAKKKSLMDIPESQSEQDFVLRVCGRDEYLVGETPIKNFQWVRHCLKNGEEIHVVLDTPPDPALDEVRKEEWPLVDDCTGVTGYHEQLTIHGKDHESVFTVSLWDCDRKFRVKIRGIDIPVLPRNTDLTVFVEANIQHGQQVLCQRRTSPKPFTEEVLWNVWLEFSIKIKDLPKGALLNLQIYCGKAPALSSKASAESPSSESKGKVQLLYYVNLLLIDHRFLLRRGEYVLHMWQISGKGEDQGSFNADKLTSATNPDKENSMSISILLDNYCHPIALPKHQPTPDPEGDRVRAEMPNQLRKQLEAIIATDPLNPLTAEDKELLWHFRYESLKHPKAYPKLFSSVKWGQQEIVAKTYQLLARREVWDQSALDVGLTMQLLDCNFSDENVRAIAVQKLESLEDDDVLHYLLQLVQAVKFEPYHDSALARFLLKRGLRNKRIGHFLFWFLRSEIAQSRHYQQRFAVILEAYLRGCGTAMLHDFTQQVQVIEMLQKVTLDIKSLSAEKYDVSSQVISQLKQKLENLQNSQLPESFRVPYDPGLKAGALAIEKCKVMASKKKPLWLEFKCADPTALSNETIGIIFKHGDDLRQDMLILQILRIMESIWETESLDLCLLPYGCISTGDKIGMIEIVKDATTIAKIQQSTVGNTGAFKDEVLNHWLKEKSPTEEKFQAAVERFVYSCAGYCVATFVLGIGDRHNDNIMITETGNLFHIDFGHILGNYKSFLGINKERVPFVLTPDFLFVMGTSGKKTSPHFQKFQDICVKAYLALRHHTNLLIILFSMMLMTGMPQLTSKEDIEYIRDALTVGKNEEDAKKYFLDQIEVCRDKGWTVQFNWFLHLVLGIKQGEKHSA
T1 sequence (P42338 whole entry, canonical isoform): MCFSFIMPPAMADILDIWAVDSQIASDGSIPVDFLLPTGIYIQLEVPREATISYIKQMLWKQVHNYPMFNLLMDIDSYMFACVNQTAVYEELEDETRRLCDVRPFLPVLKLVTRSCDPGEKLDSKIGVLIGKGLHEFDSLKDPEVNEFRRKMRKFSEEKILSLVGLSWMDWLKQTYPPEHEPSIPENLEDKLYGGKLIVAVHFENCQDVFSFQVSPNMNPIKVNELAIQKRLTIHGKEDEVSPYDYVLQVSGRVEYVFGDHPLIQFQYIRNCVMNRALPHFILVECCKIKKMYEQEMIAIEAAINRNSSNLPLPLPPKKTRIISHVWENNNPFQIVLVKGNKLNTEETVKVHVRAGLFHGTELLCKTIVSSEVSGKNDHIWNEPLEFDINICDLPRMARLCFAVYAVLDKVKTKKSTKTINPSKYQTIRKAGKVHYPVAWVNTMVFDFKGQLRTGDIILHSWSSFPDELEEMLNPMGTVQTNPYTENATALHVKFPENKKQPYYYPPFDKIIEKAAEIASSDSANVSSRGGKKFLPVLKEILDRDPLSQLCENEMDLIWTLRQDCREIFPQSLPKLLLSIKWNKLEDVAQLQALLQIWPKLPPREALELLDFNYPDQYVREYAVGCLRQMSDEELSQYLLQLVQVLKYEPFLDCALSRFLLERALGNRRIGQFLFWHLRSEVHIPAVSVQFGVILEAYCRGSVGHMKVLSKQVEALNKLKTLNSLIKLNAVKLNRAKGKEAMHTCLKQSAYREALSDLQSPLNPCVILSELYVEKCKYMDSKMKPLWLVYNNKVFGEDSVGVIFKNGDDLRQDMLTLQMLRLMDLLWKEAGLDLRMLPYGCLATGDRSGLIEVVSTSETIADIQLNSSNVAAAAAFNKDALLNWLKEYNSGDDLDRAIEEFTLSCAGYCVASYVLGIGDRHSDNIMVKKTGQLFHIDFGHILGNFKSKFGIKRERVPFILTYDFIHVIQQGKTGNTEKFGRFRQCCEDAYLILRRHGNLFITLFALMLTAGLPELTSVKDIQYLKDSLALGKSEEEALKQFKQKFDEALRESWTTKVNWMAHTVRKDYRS
T3 sequence (P42336 whole entry, canonical isoform): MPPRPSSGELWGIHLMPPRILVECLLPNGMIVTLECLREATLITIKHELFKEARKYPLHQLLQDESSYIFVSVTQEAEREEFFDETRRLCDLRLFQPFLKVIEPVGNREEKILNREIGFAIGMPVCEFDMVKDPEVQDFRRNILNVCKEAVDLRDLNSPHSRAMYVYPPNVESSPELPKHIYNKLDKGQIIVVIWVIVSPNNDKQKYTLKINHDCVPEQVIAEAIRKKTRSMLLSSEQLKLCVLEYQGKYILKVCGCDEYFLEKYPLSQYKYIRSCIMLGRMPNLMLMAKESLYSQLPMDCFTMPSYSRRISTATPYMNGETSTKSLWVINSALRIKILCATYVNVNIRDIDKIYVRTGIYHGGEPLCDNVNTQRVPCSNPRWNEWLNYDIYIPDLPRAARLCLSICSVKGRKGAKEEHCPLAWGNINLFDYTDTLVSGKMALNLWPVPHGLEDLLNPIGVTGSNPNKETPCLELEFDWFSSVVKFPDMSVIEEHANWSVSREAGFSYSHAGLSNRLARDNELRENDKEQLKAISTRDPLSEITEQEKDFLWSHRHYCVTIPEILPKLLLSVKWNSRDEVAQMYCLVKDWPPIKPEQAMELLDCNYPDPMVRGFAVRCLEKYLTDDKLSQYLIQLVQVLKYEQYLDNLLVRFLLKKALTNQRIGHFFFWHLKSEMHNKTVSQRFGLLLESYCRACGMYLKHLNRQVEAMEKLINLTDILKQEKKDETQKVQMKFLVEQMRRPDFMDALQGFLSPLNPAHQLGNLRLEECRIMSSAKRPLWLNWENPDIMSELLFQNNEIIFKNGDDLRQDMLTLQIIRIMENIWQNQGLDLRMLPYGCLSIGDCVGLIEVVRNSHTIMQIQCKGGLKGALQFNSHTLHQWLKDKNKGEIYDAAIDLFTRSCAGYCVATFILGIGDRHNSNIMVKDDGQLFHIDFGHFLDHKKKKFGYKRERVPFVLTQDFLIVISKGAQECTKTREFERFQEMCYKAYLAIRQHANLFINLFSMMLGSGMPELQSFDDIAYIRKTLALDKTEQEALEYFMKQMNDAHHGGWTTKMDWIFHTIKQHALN

Structure (SMILES)	IC50 [1] [nM]	Ratio IC50 [2]	solubility thermodynamic [3] [µM]	IC50 [4] [nM]	IC50 [5] [nM]	IC50 [6] [nM]	IC50 [7] [nM]	IC50 [8] [nM]	logP [9]	IC50 [10] [nM]	IC50 [11] [nM]	IC50 [12] [nM]	Ratio IC50 [13]
COc1ccc(-c2ccc3ncnc(O[C@H]4CCN(C(=O)OC(C)(C)C)C4)c3c2)cc1OC	1520	4	9 (≈ 4.06 µg/mL)	282	148	262	44	10	5.3	956			
COc1ccc(-c2ccc3ncnc(O[C@H]4CCN(C(C)=O)C4)c3c2)cc1OC	407	5	> 1000	194	126	210	82	16	2.6	304			
CCC(=O)N1CC[C@@H](Oc2cnc3ccc(-c4ccc(OC)c(OC)c4)cc3n2)C1	2130	5	40 (≈ 16.3 µg/mL)	366	491	1860	72	15	3.8	860	282	85	4
CCC(=O)N1CC[C@H](Oc2cnc3ccc(-c4ccc(OC)c(OC)c4)cc3n2)C1			80 (≈ 32.6 µg/mL)	3780	3230			488	3.7	> 9100			
COc1ccc(-c2ccc3ncnc(-c4cccc(C(=O)N5CCN(C(C)=O)CC5)c4)c3c2)cc1OC			610 (≈ 303 µg/mL)										
COc1ccc(-c2ccc3ncnc(O[C@H]4CCN(C)C4)c3c2)cc1OC			> 1000	1210	888			130	3.6	1480			
COc1ccc(-c2ccc3ncnc(O[C@@H]4CCN(C(C)=O)C4)c3c2)cc1OC			> 1000	1230	676			146	2.4	1790			
COc1ccc(-c2ccc3ncnc(O[C@@H]4CCN(C)C4)c3c2)cc1OC			> 1000	2070	842			110	3.6	1940			
CCC(=O)N1CC[C@H](Oc2ccnc3ccc(-c4ccc(OC)nc4)cc23)C1	877	15	> 1000	828	220	606	162	11	3.4	655	377	155	2.3
CCC(=O)N1CC[C@H](Oc2cnnc3ccc(-c4ccc(OC)nc4)cc23)C1	> 10000	13	370 (≈ 140 µg/mL)	> 9100	5080	> 10000	2840	188	2.8	9010			
CCC(=O)N1CC[C@H](Oc2ncnc3ccc(-c4ccc(OC)nc4)cc23)C1	1780	3	> 1000	698	218	1030	28	9	2.8	669	297	82	11
CCC(=O)N1CC[C@H](Oc2ncnc3ccc(-c4cnc(OC)c(C#N)c4)cc23)C1	1280	16	10 (≈ 4.03 µg/mL)	978	386	1380	79	5	2.6	360			
COc1ccc(-c2ccc3ncnc(O[C@@H]4CCN(C(=O)OC(C)(C)C)C4)c3c2)cc1OC			6 (≈ 2.71 µg/mL)	642	693			256	4.9	3880			
CCC(=O)N1CC[C@H](Oc2ccnc3ccc(-c4ccc(OC)nc4)nc23)C1	3210	29	> 1000	2940	424	2360	646	22	2.2	1030			
